Results on 2 compounds are retold here after US20230010886A1 (SUZHOU PUHE BIOPHARMA CO., LTD., priority 2019, published 2023).

The test system of test [1] is KYSE-520 cells. Briefly: Esophageal KYSE-520 xenograft model. It is filed as in vivo, BALB/c nude mice. The note with it: oral 30 mg/kg per day, once a day for 4 weeks, mice. As for the experimental part: (§1) KYSE-520 cells were expanded in culture, harvested and injected subcutaneously into 6-8 weeks old female BALB/c nude mice (5×10^6 cell/each mouse, supplemented with Matrigel (1:1) for tumor development, n=9 per group). Subsequent administration of a compound by oral gavage started when the mean tumor size reached approximately 150-200 mm^3. During the treatment (once a day for 4 weeks), the tumor volumes were measured using a caliper. Statistical analysis of difference in tumor volume among the groups were evaluated using a one-way ANOVA. Vehicle alone was the negative control.

For test [2], the system named is Mai-Pa-ca-2 cells. Briefly: Pancreatic cancer Mia-Pa-Ca-2 xenograft studies. It is filed as in vivo, BALB/c nude mice. On the procedure: Mai-Pa-ca-2 cells were expanded in culture, harvested and injected subcutaneously into 6-8 weeks old female BALB/c nude mice (5×10^6 cell/each mouse, supplemented with Matrigel (1:1) for tumor development, n=9 per group). Subsequent administration of a compound by oral gavage started when the mean tumor size reached approximately 150-200 mm^3. During the treatment (once a day for 21 days), the tumor volumes were measured using a caliper. Statistical analysis of difference in tumor volume among the groups were evaluated using a one-way ANOVA. Vehicle alone was the negative control.

Test [3] concerns NCI-H358 cells. Briefly: Combination treatment of a SHP2 inhibitor with other therapeutic agents, NSCLC with KRAS mutant xenograft. The note with it: 10 mg/kg per day combined with CDK4/6 inhibitor SYB-020097 (30 mg/kg per day), oral once daily for 28 days, mice. Format: in vivo, BALB/c nude mice. As for the experimental part:
as §1, with “NCI-H358” for “KYSE-520”, “compound or combination of compounds” for “compound”

The target in test [4] is T1, Full length SHP2 enzyme (Homo sapiens, UniProt Q06124).
T1 construct: Full length SHP2 enzyme (diluted to 0.1 nM in reaction buffer)
T1 sequence (Q06124 1-593): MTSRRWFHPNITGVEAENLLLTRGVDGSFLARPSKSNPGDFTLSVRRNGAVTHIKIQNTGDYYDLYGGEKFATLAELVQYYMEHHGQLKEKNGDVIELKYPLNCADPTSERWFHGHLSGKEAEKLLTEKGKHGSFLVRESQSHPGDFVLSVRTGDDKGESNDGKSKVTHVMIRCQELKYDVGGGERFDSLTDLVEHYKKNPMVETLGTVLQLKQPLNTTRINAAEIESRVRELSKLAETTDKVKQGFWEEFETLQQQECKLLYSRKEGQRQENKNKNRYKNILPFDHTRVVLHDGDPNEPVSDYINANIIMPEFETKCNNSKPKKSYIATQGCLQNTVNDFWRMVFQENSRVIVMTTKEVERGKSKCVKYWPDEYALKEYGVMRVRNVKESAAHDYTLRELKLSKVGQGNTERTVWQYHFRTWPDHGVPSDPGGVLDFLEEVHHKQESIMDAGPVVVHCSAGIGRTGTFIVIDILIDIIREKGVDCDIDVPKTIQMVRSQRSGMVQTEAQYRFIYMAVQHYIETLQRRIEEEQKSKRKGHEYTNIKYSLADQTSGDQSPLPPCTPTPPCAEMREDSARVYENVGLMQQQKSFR
Kind of test: SHP2 phosphatase assay. It is filed as biochemical. The note with it: 1 μM IRS-1 peptide, DiFMUP substrate. As for the experimental part: IC50 values were determined at room temperature in 384-well black polystyrene plate, using a final reaction volume of 15 μL and the following assay buffer conditions: 60 mM Hepes (pH=7.2), 75 mM NaCl, 75 mM KCl, and 1 mM EDTA, 0.05% P-20, 5 mM dithiothreitol (DTT). Full length SHP2 enzyme (diluted to 0.1 nM in reaction buffer) were co-incubated with 1 μM IRS-1 peptide and 0.01 nM to 10 μM compounds of the disclosure for 60 min. The surrogate substrate DiFMUP (5 μL, 100 μM) was added, and incubated at rt for 60 min. The reaction was then quenched by the addition of 5 μL of a 40 μM solution of bpV(Phen). The fluorescence signal was monitored using a microplate reader (Envision, Perkin-Elmer) using excitation and emission wavelengths of 360 nm and 450 nm, respectively. The inhibitor dose-response curves were analyzed using normalized IC50 regression curve fitting with control-based normalization.

In test [5] the test system is KYSE-520 cell line. Briefly: Cell proliferation assay (CellTiter Glo), KYSE-520. It is filed as cell-based. The note with it: Homo sapiens, 3-5 days. On the procedure:
Firstly, the cells were seeded in 384-well cell culture plate and incubate overnight. The test compounds were added to the cell plate and incubated for 3-5 days. The cell plate was then detected using CellTiter Glo reagents.

For the compound `C[C@@H]1OCC2(CCN(c3ncc(Sc4cccc(Cl)c4Cl)[nH]c3=O)CC2)[C@@H]1N`, in test [1], the “anti-tumor activity compared with reference compound” value is on record as “superior anti-tumor activities than reference compound RMC-4550”. Moreover, in test [1], the tumor growth inhibition entry is “more than 90%”. In addition, the “reduction of tumor growth, combination vs each compound alone” value in test [2] (30 mg/kg per day co-administered with CDK4/6 inhibitor SYB-020097 (50 mg/kg per day)) and in test [2] (30 mg/kg per day co-administered with MEK inhibitor SYB-020099 (1 mg/kg per day)) was “significantly higher reduction of tumor growth” in each case. Further, in test [3], the “improvement of combination over monotherapy” value is on record as “more than 50%”.
On to `C[C@@H]1OCC2(CCN(c3ncc(Sc4ccnc(Cl)c4Cl)[nH]c3=O)CC2)[C@@H]1N` [Example 81, 3-((3S,4S)-4-amino-3-methyl-2-oxa-8-azaspiro[4.5]decan-8-yl)-6-((2,3-dichloropyridin-4-yl)thio)pyrazin-2(1H)-one], for which the results for the concentration for half-maximal inhibition (IC50) in test [4] and in test [5] were no more than 50 nM and less than 1000 nM, respectively.
